Experimental data as given in patent EP0470144B1, “BETA-HYDROXAMATE D-ASPARTIC ACID FOR TREATMENT OF VIRAL INFECTIONS AND TUMOURS” (priority 1989, dated 1990).

What was measured:
[1] = tested on: lymphocytes infectés par le virus du SIDA; test: Growth and cell mortality of HIV-infected lymphocytes; assay type: cell-based; conditions: 0,5-2 mM DAH; compared with uninfected lymphocytes
Source text: Cette inhibition est dose-dépendante. Les essais ont d'abord porté sur des lymphoytes de donneurs sains (Figures 1 et 2). On a pu mettre en évidence cette activité sur deux modèles de réplication du HIV : a) lymphocytes normaux infectés par le virus purifié et b) coculture des lymphocytes des malades du SIDA et de lymphocytes normaux. On a mesuré l'activité transcriptase inverse pendant 22 jours dans le surnageant de cultures cellulaires comme critère de prolifération virale. Le traitement avec le DAH a duré 72 heures de J₀ à J₃ de la manipulation (Figures 3, 4 et 5). […] Par contre, le DAH s'est montré plus toxique vis-à-vis des lymphocytes infectés par le virus du SIDA (Figures 6 et 7).
Effet du DAH sur le taux de croissance de lymphocytes infectés.
(●) absence de DAH (o) concentration en DAH = 0,5 mM (□) concentration en DAH = 1 mM (△) concentration en DAH = 1,5 mM (◇) concentration en DAH = 2 mM • . En abscisses : temps de culture (en jours) • . En ordonnées : taux de croissance.
Effet du DAH sur la mortalité cellulaire de lymphocytes infectés.
(●) absence de DAH (o) concentration en DAH = 0,5 mM (□) concentration en DAH = 1 mM (△) concentration en DAH = 1,5 mM (◇) concentration en DAH = 2 mM • . En abscisses : temps de culture (en jours) • . En ordonnées : proportion de cellules mortes (en %).

[2] = tested on: FLV; test: Friend virus (FLV) replication in SC1 cell culture, reverse transcriptase activity in supernatants; assay type: cell-based; conditions: SC1 cells infected with FLV
Source text: Des cultures de cellules SC1 traitées avec du polybrène ont été infectées avec du FLV (5 x 10⁵ particules infectantes pour 2 x 10⁵ cellules). Les cellules ont ensuite été mises en culture avec diverses concentrations de DAH et l'activité de réplication du FLV a été mesurée par dosage de l'activité transcriptase inverse apparaissant dans les surnageants de milieux de culture aux 2ème, 4ème et 6ème jour après l'infection.

[3] = molecular target: T1, transcriptase inverse (RT) du FLV (Friend murine leukemia virus, UniProt P26810); test: Reverse transcriptase (RT) activity of highly purified FLV, poly A-oligo dT substrate; assay type: biochemical; conditions: at concentrations giving the anti-retroviral effect in cell culture
T1 construct: comme source de RT une préparation de FLV hautement purifié; from tissue; host or cells: highly purified FLV virus preparation (virions)
Source text: La transcriptase inverse étant la cible de divers agents anti-rétroviraux, il est intéressant de tester l'effet du DAH sur l'activité transcriptase inverse (RT) du FLV. Cet essai a été effectué en utilisant comme source de RT une préparation de FLV hautement purifié, et comme substrat du poly A-oligo dT. Les substrats ont été introduits dans le milieu réactionnel dans l'ordre suivant : DAH aux concentrations désirées, virus purifié, polyA-oligo dT, dTTP + ³HdTTP.

[4] = tested on: lymphome L5178Y; test: Antitumour activity in the L5178Y lymphoma model, survival; assay type: in vivo; conditions: days 1,2,3,4,5; for Nombre d'animaux survivants: at 120 days
Source text: (§1) L'activité antitumorale du DAH a été aussi étudiée sur deux autres modèles murins : le lymphome L5178Y et la leucémie P388.
Les cellules de lymphome murin (L5178Y) sont maintenues par passages intrapéritonéaux successifs chez la souris DBA/2 et injectées, pour les essais, à la dose de […] par souris.

[5] = tested on: leucémie P388; test: Antitumour activity in the P388 leukaemia model, survival; assay type: in vivo, souris B6D2F1; conditions: for Nombre d'animaux survivants: at 30 days
Source text: as §1
Les cellules de la leucémie P388 sont maintenues par passage intrapéritonéaux chez la souris DBA/2 et injectées, pour les essais, à la dose de […] par souris sur la souris B6D2F1.

[6] = Pre-clinical pharmacology: DAH levels in serum and urine after intraperitoneal injection; assay type: in vivo, souris B6D2F1; conditions: 3 g/kg intraperitoneal
Source text: Le DAH a été dosé dans les sérums et les urines de souris B6D2F1 âgées de 8 semaines, ayant reçu une injection intrapéritonéale de DAH de 3 g/kg. Le DAH a été dosé par spectrophotométrie par mise en évidence du complexe Fe3+- hydroxamate à 550 nm.

[7] = Toxicity in dogs (NCI recommendations), intravenous administration; assay type: in vivo, chiens Beagle
Source text: En suivant les recommandations du National Cancer Institute (NCI), on a déterminé : a) la dose maximale non toxique, b) la dose toxique faible, c) la dose maximale toxique non léthale, d) la dose léthale.
Ces études ont été réalisées sur des chiens Beagle âgés de six à sept mois et pesant 6,5 à 7,5 kg. Pour mettre en évidence les effets toxiques du DAH, on a mesuré des paramètres cliniques, morphologiques, biochimiques et hématologiques.
L'évaluation de la fréquence cardiaque, l'électrocardiogramme, la pression artérielle (mesurée par cathétérisme intra-artériel), et la fréquence respiratoire ont été mesurées chez des chiens anesthésiés par l'alphachloralose.

[8] = tested on: leucémie 1210, lymphome RBL5 et mélanome B16; conditions: 600 mg/kg per day for 5 days; cited from earlier work
[9] = LD50 comparison of DAH and LAH; conditions: in vivo

N[C@@H](CC(=O)NO)C(=O)O [DAH, D-acide aspartique β-hydroxamate]
toxicité vis-à-vis des lymphocytes infectés par le virus du SIDA [1]: plus toxique | activité transcriptase inverse abaissée ([2]; DAH 0,2 mM): ~70% | activité transcriptase inverse abaissée ([2]; DAH 0,5 mM): 80% | activité transcriptase inverse abaissée ([2]; DAH 1 mM): 90% | effet sur l'activité RT [3]: aucun effet | T/Cx100 ([4]; 1 g/kg x 3/j): 576% | Nombre d'animaux survivants ([4]; 1 g/kg x 3/j): 5/5 | T/Cx100 ([4]; 1 g/kg x 4/j): 576% | Nombre d'animaux survivants ([4]; 1 g/kg x 4/j): 5/5 | T/Cx100 ([5]; 1,5 g/kg x4/j, days 1,2,3): 155% | T/Cx100 ([5]; 1,5 g/kg x 4/j, days 1,2,3,4,5): 190% | Nombre d'animaux survivants ([5]; 1,5 g/kg x 4/j, days 1,2,3,4,5): 0/5 | Nombre d'animaux survivants ([5]; 1,5 g/kg x4/j, days 1,2,3): 0/5 | modification structurale du DAH éliminé par voie urinaire [6]: aucune modification structurale | pic plasmatique moyen [6]: 6 mg/mL | pic urinaire [6]: 220 mg/mL | temps du pic plasmatique [6]: 20 min | élimination urinaire prolongée sur [6]: 24 heures | temps du pic urinaire ([6]; after injection): 250 min | demi-vie ([6]; decrease of plasma concentration): 35 min | nadir plaquettes ([7]; 5 g/kg, 8th day after injection, return to pre-treatment level seven to ten days later): 39 x 109 plaquettes/l | nadir plaquettes ([7]; 9 g/kg, twenty-two days after injection): 17 x 109 plaquettes/l | récupération partielle (plaquettes) ([7]; 9 g/kg, two months later): 56 x 10⁹/l | fréquence cardiaque, électrocardiogramme, pression artérielle, fréquence respiratoire ([7]; anaesthetised dogs, intravenous 1 to 5 g/kg): aucune modification | dose maximale non toxique ([7]; dog, in vivo): 2,5-3 g/kg | dose toxique faible ([7]; dog, in vivo): 5000 mg/kg | dose toxique maximale non léthale ([7]; dog, in vivo): ~9000 mg/kg | toxicité de la fonction rénale ou hépatique ([7]; doses up to 9 g/kg): Aucune toxicité | toxicité sur les lignées granulo-monocytaires et érythrocytaires ([7]; including high doses (9 g/kg)): Aucune toxicité | dose à partir de laquelle une toxicité sur la lignée plaquettaire a été constatée ([7]; intravenous): ≥ 5000 mg/kg | Effets toxiques d'apparition immédiate ([7]; intravenous 1 to 10 g/kg (10 % solution), during administration, with anorexia up to 24 hours): vomissements | tolérance à l'administration réitérée ([7]; intravenous, two weeks, five weekly injections of 1 g/kg): aucun signe d'intolérance autre que des vomissements | complication rénale ([7]; one dog, dose of more than 10 g/kg, avoided later by prehydration): précipitation des cristaux de DAH dans les tubules rénaux | activité in vivo sur trois modèles tumoraux murins [8]: aucune activité | DL 50 % [9]: 10 g/kg
